One block for each compound: values may come before it.
Assay: solvent given as SMILES

Compound: CC1CC=C(c2ccc(-c3cccs3)s2)CC1 (configuration not stated)
- absorption maximum (in C1CCOC1): 341 nm
- absorption maximum (in CC#N): 341 nm
- absorption maximum (in CCCCCC): 341 nm
- absorption maximum (in CCO): 336 nm
- absorption maximum (in OCCOCCO): 341 nm
- absorption maximum (in c1ccncc1): 343 nm

Compound: CC(O)CC1=N/C(=C\c2cccc(N(C)C)c2)C(=O)N1C (configuration not stated)
- absorption maximum (in C1CCOC1): 356 nm
- absorption maximum (in CC#N): 355 nm
- absorption maximum (in CCCCCC): 352 nm

Compound: N#Cc1cccc2cc[nH]c12
- absorption maximum (in C1COCCO1): 307.36 nm
- absorption maximum (in CC#N): 309.69 nm
- absorption maximum (in O): 308 nm

Compound: CCn1c2ccccc2c2cc(-c3cc(-c4ccc5c(c4)c4ccccc4n5CC)nc(-c4ccccc4)n3)ccc21
- absorption maximum (in C1CCOC1): 364 nm
- absorption maximum (in CCOC(C)=O): 360 nm
- absorption maximum (in CN(C)C=O): 367 nm
- absorption maximum (in Cc1ccccc1): 363 nm
- absorption maximum (in ClCCl): 363 nm

Compound: Cc1ccc(-c2ccccc2)cc1
- absorption maximum (in C1CCCCC1): 257.4 nm

Compound: CCCCCCCCOc1cc(/C=C/c2cc(OCCCCCCCC)c(/C=C/c3cc(OCCCCCCCC)c(Br)cc3OCCCCCCCC)cc2OCCCCCCCC)c(OCCCCCCCC)cc1Br
- absorption maximum (in ClCCl): 410 nm

Compound: CC(=O)Nc1ccc(C2=C/C(=C\c3ccc([N+](=O)[O-])cc3)C(=O)O2)cc1
- absorption maximum (in C1COCCO1): 438 nm

Compound: CCCCCn1c2ccc(S(=O)(=O)O)cc2c(=O)c2cc(S(=O)(=O)O)ccc21
- absorption maximum (in CS(C)=O): 406 nm
- absorption maximum (in O): 406 nm

Compound: O=CC1=C(c2ccc(-c3cccs3)s2)CCC1
- absorption maximum (in C1CCOC1): 377 nm
- absorption maximum (in CC#N): 374 nm
- absorption maximum (in CCCCCC): 366 nm
- absorption maximum (in CCO): 386 nm
- absorption maximum (in OCCOCCO): 377 nm
- absorption maximum (in c1ccncc1): 385 nm

Compound: CC(C)(C)c1ccc2c(c1)c1cc(C(C)(C)C)cc3c1n2-c1cc(-c2cccc(F)c2)cc2c1B3c1cc(C(C)(C)C)cc3c4cc(C(C)(C)C)ccc4n-2c13
- absorption maximum (in Cc1ccccc1): 467.1 nm

Compound: CCN(CC)c1ccc(/N=N/c2nc3ccc(Br)cc3s2)cc1
- absorption maximum (in CC#N): 520 nm
- absorption maximum (in ClCCl): 518 nm

Compound: CCOC(=O)c1cc(C(=O)O)nc2cc(OC)ccc12
- absorption maximum (in CCO): 349 nm

Compound: c1cc2c3c(cccc3c1)NC(c1ccc3ccc4cccc5ccc1c3c45)N2
- absorption maximum (in CC#N): 341 nm
- absorption maximum (in CO): 340 nm
- absorption maximum (in CS(C)=O): 344 nm
- absorption maximum (in Cc1ccccc1): 344 nm

Compound: CCCCC1(c2ccccc2)Nc2ccccc2N=C1c1ccccc1 (configuration not stated)
- absorption maximum (in ClC(Cl)Cl): 386 nm

Compound: N#Cc1c(-n2c3ccc(Cl)cc3c3cc(Cl)ccc32)c(C#N)c(-n2c3ccc(Cl)cc3c3cc(Cl)ccc32)c(-n2c3ccc(Cl)cc3c3cc(Cl)ccc32)c1-n1c2ccc(Cl)cc2c2cc(Cl)ccc21
- absorption maximum (in Cc1ccccc1): 384 nm

Compound: CN(CC(O)c1cccc(O)c1)c1ccc([N+](=O)[O-])c(C2CC(c3cccc4ccccc34)=NN2c2ccccc2)c1 (configuration not stated)
- absorption maximum (in C1CCCCC1): 400 nm
- absorption maximum (in C1CCOC1): 411 nm
- absorption maximum (in C1COCCO1): 396 nm
- absorption maximum (in CC#N): 402 nm
- absorption maximum (in CC(C)O): 412 nm
- absorption maximum (in CCOC(C)=O): 418 nm
- absorption maximum (in CCOCC): 405 nm
- absorption maximum (in CO): 409 nm
- absorption maximum (in Cc1ccccc1): 414 nm
- absorption maximum (in ClC(Cl)Cl): 369 nm
- absorption maximum (in O): 406 nm

Compound: CC1(C)c2ccccc2N(c2ccc3c(c2)c2cc(N4c5ccccc5C(C)(C)c5ccccc54)ccc2c2nc(C#N)c(C#N)nc32)c2ccccc21
- absorption maximum (in Cc1ccccc1): 464 nm

Compound: CCCn1c2cccc3c2[c+]2c4c1cccc4n(CCC)c1cccc(c12)n3CCC
- absorption maximum (in CC#N): 521 nm

Compound: COC(=O)C(NC(=O)OC(C)(C)C)c1ccc2oc(-c3ccc(C#N)cc3)nc2c1 (configuration not stated)
- absorption maximum (in CC1CCCCC1): 337 nm
- absorption maximum (in CC#N): 333 nm
- absorption maximum (in CO): 317 nm

Compound: F[B-]1(F)OC(c2ccccc2)=Cc2cc(Cl)nc[n+]21
- absorption maximum (in C1CCOC1): 374 nm
- absorption maximum (in CC#N): 371 nm
- absorption maximum (in CCCCCC): 373 nm
- absorption maximum (in Cc1ccccc1): 377 nm
- absorption maximum (in ClC(Cl)Cl): 376 nm
- absorption maximum (in ClCCl): 375 nm

Compound: CCCCCCCCC1(CCCCCCCC)c2cc(C#Cc3ccc(N(c4ccccc4)c4ccccc4)cc3)ccc2-c2ccc(C=O)cc21
- absorption maximum (in C1CCOC1): 378 nm
- absorption maximum (in C1COCCO1): 381 nm
- absorption maximum (in CC#N): 378 nm
- absorption maximum (in CC(C)=O): 373 nm
- absorption maximum (in CCOC(C)=O): 376 nm
- absorption maximum (in CN(C)C=O): 380 nm
- absorption maximum (in CS(C)=O): 381 nm
- absorption maximum (in Cc1ccccc1): 388 nm
- absorption maximum (in ClC(Cl)Cl): 386 nm
- absorption maximum (in ClCCl): 384 nm

Compound: C[n+]1ccc(/C=C/c2ccc(N(c3ccccc3)c3ccc(/C=C/c4cc[n+](C)cn4)cc3)cc2)nc1
- absorption maximum (in CS(C)=O): 500 nm
- absorption maximum (in O): 525 nm
- absorption maximum (in OCC(O)CO): 560 nm

Compound: CCC(C)(C)c1ccc2c(c1)C(CC)(CC)c1cc(-c3ccc4c(c3)C(CC)(CC)c3cc(C(C)(C)CC)ccc3-4)ccc1-2
- absorption maximum (in C1CCCCC1): 331 nm

Compound: CC[N+]1(CC)CN2C(C)=CC(C)=C(C(=O)[O-])C2=N1
- absorption maximum (in CN(C)C=O): 361 nm
- absorption maximum (in O): 338 nm

Compound: N#Cc1nc(-n2c3ccccc3c3ccccc32)cc(-n2c3ccccc3c3ccccc32)n1
- absorption maximum (in Cc1ccccc1): 371 nm

Compound: Cc1cc(O)c(C(=O)/C=C/c2ccc(Cl)cc2Cl)c(=O)o1
- absorption maximum (in CC#N): 349 nm
- absorption maximum (in ClCCl): 350 nm

Compound: c1ccc2c(-c3nc4sc5ccccc5c4s3)cccc2c1
- absorption maximum (in CS(C)=O): 350 nm

Compound: c1ccc2c(c1)OP1(=NP(Oc3ccc4ccc5cccc6ccc3c4c56)(Oc3ccc4ccc5cccc6ccc3c4c56)=NP(Oc3ccc4ccc5cccc6ccc3c4c56)(Oc3ccc4ccc5cccc6ccc3c4c56)=N1)Oc1ccccc1-2
- absorption maximum (in ClCCl): 343 nm

Compound: Oc1ccccc1-c1nc2c3ccccc3c3ccccc3c2n1-c1ccccc1
- absorption maximum (in Cc1ccccc1): 335 nm

Compound: Cc1cc(C)c(B(c2ccc(-n3c4ccccc4c4ccccc43)cc2)c2c(C)cc(C)cc2C)c(C)c1
- absorption maximum (in Cc1ccccc1): 360 nm

Compound: CC(C)(C)c1ccc2c(c1)c1cc(C(C)(C)C)ccc1n2-c1ccc(C(=O)c2ccncc2)cc1
- absorption maximum (in C1CCOC1): 367.32 nm
- absorption maximum (in CCCCCC): 372.17 nm
- absorption maximum (in Cc1ccccc1): 373.66 nm
- absorption maximum (in ClCCl): 377.92 nm

Compound: COCCC1=Cc2nc1ccc1[nH]c(cc1CCOC)c1nc(c(NC(C)=O)cc3[nH]c2cc3CCOC)C(CCOC)=C1
- absorption maximum (in Cc1ccccc1): 670 nm

Compound: COc1ccc2ccc(O)cc2c1
- absorption maximum (in O): 325 nm

Compound: C(#Cc1nc2ccccc2s1)c1ccc(N(c2ccccc2)c2ccccc2)cc1
- absorption maximum (in Cc1ccccc1): 388 nm

Compound: c1ccc(-c2nc(-c3ccc(N4c5ccccc5C(c5ccccc5)(c5ccccc5)c5ccccc54)cc3)cc(-c3ccccn3)n2)cc1
- absorption maximum (in Cc1ccccc1): 371.33 nm

Compound: CCOC(=O)/C(C#N)=C/c1cc2c3ccccc3n(C)c2cc1OC
- absorption maximum (in C1CCOC1): 407 nm
- absorption maximum (in CC#N): 410 nm
- absorption maximum (in CCOC(C)=O): 406 nm
- absorption maximum (in CN(C)C=O): 417 nm
- absorption maximum (in CO): 415 nm
- absorption maximum (in CS(C)=O): 419 nm
- absorption maximum (in Cc1ccccc1): 407 nm
- absorption maximum (in ClC(Cl)Cl): 415 nm
- absorption maximum (in ClCCl): 412 nm

Compound: CN(C)c1ccc(C(=Cc2ccc(C=O)cc2)c2ccc(N(C)C)cc2)cc1
- absorption maximum (in C1CCOC1): 407 nm

Compound: CCCCn1c2ccc(-c3ccc4c(c3)c3c5c(ccc6ccc7ccccc7c65)ccc3n4CCCC)cc2c2c3c(ccc4ccc5ccccc5c43)ccc21
- absorption maximum (in ClCCl): 336 nm

Now from value to compound:

- absorption maximum (in CO): 278 nm
Compound: N#Cc1c(-n2nnc3ccccc32)n([C@H]2C[C@H](O)[C@@H](CO)O2)c2ncnc(N)c12

- absorption maximum (in CC#N): 382 nm
Compound: CCOC(=O)c1c2c3c(ccc(Br)c3c3cc4c(cc13)[Si](C)(C)O[Si]4(C)C)N(C)C2=O

- absorption maximum (in CC#N): 360 nm
Compound: Fc1nc(F)c(F)c(C#Cc2cc3c(cc2C#Cc2c(F)c(F)nc(F)c2F)OC2(CCCCC2)O3)c1F

- absorption maximum (in CCO): 361 nm
Compound: O=c1c2cc(F)c(N3CCOCC3)cc2sc2cc(N3CCOCC3)c(F)cc12

- absorption maximum (in C1COCCO1): 456 nm
Compound: CCC12C(=C3C(=C4c5ccc(-c6ccc(C(C)=O)cc6)cc5S(=O)(=O)C41CC)C(F)(F)C(F)(F)C3(F)F)c1ccc(-c3ccc(C(C)=O)cc3)cc1S2(=O)=O (configuration not stated)

- absorption maximum (in ClCCl): 398 nm
Compound: CCCCC(CC)Cn1c2cc(C#N)ccc2c2cc(-c3ccc(N(c4ccccc4)c4ccccc4)cc3)c(C#N)cc21 (configuration not stated)

- absorption maximum (in CCO): 471 nm
Compound: CC1(C)Nc2cc3nc4cc(Cl)c(Cl)cc4nc3cc2N1

- absorption maximum (in ClCCl): 419 nm
Compound: C(=C\c1cc(-c2ccc3ccccc3c2)c(/C=C/c2ccc(N(c3ccccc3)c3ccccc3)cc2)cc1-c1ccc2ccccc2c1)/c1ccc(N(c2ccccc2)c2ccccc2)cc1

- absorption maximum (in C1CCOC1): 393 nm
Compound: N#Cc1c(N2CCCCC2)cc(-c2ccc3ccc4cccc5ccc2c3c45)c2c1-c1ccccc1C2=O

- absorption maximum (in ClC(Cl)Cl): 385 nm
Compound: Cc1ccc(C(=O)/N=c2\oc3cccc4c5c(-c6ccccc6)oc6cccc(c(c2-c2ccccc2)c34)c65)cc1

- absorption maximum (in ClCCl): 523 nm
Compound: COc1ccc(-c2c3ccccc3c(C#Cc3ccccc3)c3cc4ccccc4cc23)cc1

- absorption maximum (in ClC(Cl)Cl): 409 nm
Compound: CCc1ccc(-n2c3ccccc3c3cc4c(cc32)c2ccccc2n4-c2ccc(CC)cc2)cc1

- absorption maximum (in ClC(Cl)Cl): 376 nm
Compound: CC(C)(C)c1ccc(-c2ccc(-c3c4c(nc5ccccc35)-c3cc5c(cc3CC4)-c3nc4ccccc4c(-c4ccc(-c6ccc(C(C)(C)C)cc6)cc4)c3CC5)cc2)cc1

- absorption maximum (in ClCCl): 405 nm
Compound: CCN(CC)c1ccc2c(c1)oc(=O)c1cnc3c(cnn3-c3ccccc3)c12

- absorption maximum (in ClCCl): 385 nm
Compound: COc1ccc(C#Cc2ccc3nc4ccc(C#Cc5ccc(OC)cc5)cn4c(=O)c3c2)cc1

- absorption maximum (in ClC(Cl)Cl): 434 nm
Compound: CCN(CC)c1ccc2cc(-c3cn4cc5ccccc5cc4n3)c(=O)oc2c1

- absorption maximum (in ClCCl): 362 nm
Compound: O=c1c2ccccc2nc2ccc(-c3ccc(-c4ccc(N(c5ccccc5)c5ccccc5)cc4)cc3)cn12

- absorption maximum (in C1COCCO1): 355 nm
- absorption maximum (in CC#N): 357 nm
- absorption maximum (in CO): 358 nm
- absorption maximum (in ClCCl): 361 nm
Compound: CN(C)c1ncc2nc(C#N)n(Cc3ccccc3)c2n1

- absorption maximum (in CN(C)C=O): 590 nm
Compound: CCN(CC)c1ccc(/C=C2\CC/C(=C\c3ccc(N(c4ccc(/C=C5\CC/C(=C\c6ccc(N(CC)CC)cc6)C5=C(C#N)C#N)cc4)c4ccc(/C=C5\CC/C(=C\c6ccc(N(CC)CC)cc6)C5=C(C#N)C#N)cc4)cc3)C2=C(C#N)C#N)cc1

- absorption maximum (in C1CCCCC1): 401 nm
- absorption maximum (in CC#N): 404 nm
- absorption maximum (in ClC(Cl)Cl): 404 nm
Compound: O=C1Cc2cc3c(cc2CCCc2ccc(cc2)CCC3)CC(=O)Cc2ccc(c3nsnc23)C1

Source: the Deep4Chem optical property database
